Earlier results on one compound are cited in patent publication US20080233219A1, “Composition for diet comprising plant essential oil as active ingredient, sheet type composition for diet comprising thereof, percutaneous pharmaceutical agent for diet comprising thereof, and method for producing thereof” (NATURE TECHNOLOGY INC., priority 2005, published 2008).

For data set [1] the following is noted: in three month.
For data set [2] the following is noted: in vivo.

`OC1(c2ccc(Cl)cc2)c2ccccc2C2=NCCN21` (centres unmarked) [Mazindol]: the “gradual weight loss, average” value in data set [1] was “about 4.5 kg”. The side effects result in data set [2] is “not serious ones except cotton mouth, astriction, indigestible feeling”.
